Here are results for 2 molecules from patent publication US11708346B2, “Treatment and prevention of neuropathic pain with P2Y14 antagonists” (Saint Louis University, priority 2019, dated 2023).

“Also recorded” adds a separate entry of the source.

One test deals with T1, hP2Y14R (Homo sapiens, UniProt Q15391).
T1 construct: expressed in transfected cells; host or cells: CHO
T1 sequence (Q15391 1-338): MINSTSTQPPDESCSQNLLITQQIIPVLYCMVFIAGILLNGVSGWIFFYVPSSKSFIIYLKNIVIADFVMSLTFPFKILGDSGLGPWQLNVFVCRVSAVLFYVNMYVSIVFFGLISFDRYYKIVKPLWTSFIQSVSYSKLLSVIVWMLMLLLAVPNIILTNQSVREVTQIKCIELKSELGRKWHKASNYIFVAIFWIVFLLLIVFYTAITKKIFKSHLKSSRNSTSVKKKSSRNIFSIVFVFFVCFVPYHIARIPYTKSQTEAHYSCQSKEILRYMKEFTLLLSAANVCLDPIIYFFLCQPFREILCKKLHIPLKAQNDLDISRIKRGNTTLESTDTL
Nature of the test: Competitive fluorescent binding assay in whole CHO-hP2Y14R cells, tracer 20, flow cytometry. The following applies: read-out: Human P2Y14R binding affinity (IC50).

The target of the next test is DOR (Homo sapiens, UniProt P41143). Nature of the test: PDSP off-target binding.
Sequence of DOR (P41143 whole entry): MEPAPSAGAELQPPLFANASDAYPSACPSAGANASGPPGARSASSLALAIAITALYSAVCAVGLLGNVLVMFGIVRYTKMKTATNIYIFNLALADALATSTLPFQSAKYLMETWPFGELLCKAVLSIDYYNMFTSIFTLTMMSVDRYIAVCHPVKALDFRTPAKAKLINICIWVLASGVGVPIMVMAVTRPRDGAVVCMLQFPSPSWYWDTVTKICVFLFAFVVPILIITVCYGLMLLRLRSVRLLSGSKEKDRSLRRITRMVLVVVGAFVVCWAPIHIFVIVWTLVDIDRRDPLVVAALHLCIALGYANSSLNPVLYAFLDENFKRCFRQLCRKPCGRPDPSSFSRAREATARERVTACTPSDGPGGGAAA
A further test addresses T2, α2C (Homo sapiens, UniProt P18825).
T2 sequence (P18825 1-462): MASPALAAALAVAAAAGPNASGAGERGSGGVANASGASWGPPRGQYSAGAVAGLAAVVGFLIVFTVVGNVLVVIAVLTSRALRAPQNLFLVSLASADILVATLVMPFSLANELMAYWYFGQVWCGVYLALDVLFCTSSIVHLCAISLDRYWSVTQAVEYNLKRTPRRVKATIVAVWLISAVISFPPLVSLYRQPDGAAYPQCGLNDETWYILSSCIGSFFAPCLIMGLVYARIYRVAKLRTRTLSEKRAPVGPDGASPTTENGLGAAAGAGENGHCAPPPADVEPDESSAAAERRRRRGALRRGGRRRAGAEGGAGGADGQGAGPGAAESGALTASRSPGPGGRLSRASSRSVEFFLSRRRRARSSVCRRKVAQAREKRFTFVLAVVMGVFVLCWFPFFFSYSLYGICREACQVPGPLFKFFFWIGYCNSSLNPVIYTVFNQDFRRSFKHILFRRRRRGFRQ
Nature of the test: PDSP off-target binding. Particulars: ± SEM.

The target of another test is T3, α2A (Homo sapiens, UniProt P08913).
T3 sequence (P08913 1-465): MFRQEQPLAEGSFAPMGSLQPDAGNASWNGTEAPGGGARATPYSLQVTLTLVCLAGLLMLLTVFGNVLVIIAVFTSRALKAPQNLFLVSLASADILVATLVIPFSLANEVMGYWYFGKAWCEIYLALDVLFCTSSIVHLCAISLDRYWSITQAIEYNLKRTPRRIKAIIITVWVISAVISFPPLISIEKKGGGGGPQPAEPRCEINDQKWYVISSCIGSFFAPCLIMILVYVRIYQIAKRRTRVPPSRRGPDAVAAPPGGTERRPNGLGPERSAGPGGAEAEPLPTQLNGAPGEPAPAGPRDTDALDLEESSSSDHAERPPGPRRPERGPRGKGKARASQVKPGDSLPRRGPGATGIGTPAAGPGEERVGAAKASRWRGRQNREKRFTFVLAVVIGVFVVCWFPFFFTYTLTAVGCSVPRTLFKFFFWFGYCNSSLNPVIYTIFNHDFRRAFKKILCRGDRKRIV
Kind of test: PDSP off-target binding.

For the next test, the target named is T4, α2B (Homo sapiens, UniProt P18089).
T4 sequence (P18089 1-450): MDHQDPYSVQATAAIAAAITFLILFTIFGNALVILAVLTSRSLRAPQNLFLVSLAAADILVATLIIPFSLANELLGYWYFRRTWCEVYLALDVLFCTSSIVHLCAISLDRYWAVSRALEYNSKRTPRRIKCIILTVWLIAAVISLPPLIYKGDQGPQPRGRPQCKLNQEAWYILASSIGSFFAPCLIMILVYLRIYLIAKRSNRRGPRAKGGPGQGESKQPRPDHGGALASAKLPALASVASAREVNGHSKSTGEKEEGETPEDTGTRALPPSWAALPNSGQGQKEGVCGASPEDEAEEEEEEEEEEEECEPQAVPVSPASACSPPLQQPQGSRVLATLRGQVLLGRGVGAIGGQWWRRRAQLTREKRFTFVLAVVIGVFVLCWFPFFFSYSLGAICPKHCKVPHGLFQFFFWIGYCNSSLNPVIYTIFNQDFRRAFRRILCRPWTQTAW
Kind of test: PDSP off-target binding.

The subject of test [1] is CCI-induced mechano-allodynia. Kind of test: Chronic constriction injury (CCI) of the sciatic nerve, mechano-allodynia by von Frey filaments. It counts as in vivo, mouse. As for the experimental part:
Chronic constriction injury (CCI) to the sciatic nerve was performed using the Bennett model. […] Then the animals were placed on a sterile surgical field and the skin was wiped with topical antiseptic, Dermachlor solution (0.2% chlorhexidine gluconate). […] A small incision was created on the lateral side of the left hind limb parallel to the femur. The sciatic nerve was exposed and ligated on two sites about 1 mm apart above the trifurcation using silk sutures 6.0. The incision was closed with clips and lidocaine cream was applied.
Mice were acclimated to the testing mesh-rack for 30 min before behavioral measurements. All behavioral testing was performed in the morning. The baseline measurements were determined on day 0 before CCI procedure. On day 7 post-CCI, baseline behavior responses were assessed, beginning prior to drug administration. Following drug injection, the behaviors were evaluated at multiple time points. Mechano-allodynia was quantified according to the hind paw withdrawal response to von Frey filaments stimulation by the Dixon up-and-down method. […] In presence of a positive withdrawal response a lighter filament was applied. If a negative response occurred, a stronger filament was used. At least four readings are obtained after the first positive response and the pattern of response was converted to a 50% paw withdrawal threshold (PWT), using the method described by Chaplan et al., J. Neurosci.
Data are expressed as mean±SD and analyzed by two-tailed, two-way repeated measures ANOVA with Dunnett's post hoc comparisons to day 7 behavior. The percentage of reversal of peak CCI-induced pain afforded by each drug was calculated for each animal using their baseline and day 7 post CCI behavioral measures. % Reversal=(PWT(g)t−PWT(g)day7)/PWT(g)day0−PWT(g)day7)×100, where PWT(g)=paw withdrawal threshold, t=time after drug. […] All statistical analyses were performed using GraphPad Prism 8 (Graph Pad Inc., San Diego, Calif.). Significance was accepted at p<0.05.

The next test concerns the target T5, mP2Y14R (Mus musculus, UniProt Q9ESG6).
T5 sequence (Q9ESG6 1-338): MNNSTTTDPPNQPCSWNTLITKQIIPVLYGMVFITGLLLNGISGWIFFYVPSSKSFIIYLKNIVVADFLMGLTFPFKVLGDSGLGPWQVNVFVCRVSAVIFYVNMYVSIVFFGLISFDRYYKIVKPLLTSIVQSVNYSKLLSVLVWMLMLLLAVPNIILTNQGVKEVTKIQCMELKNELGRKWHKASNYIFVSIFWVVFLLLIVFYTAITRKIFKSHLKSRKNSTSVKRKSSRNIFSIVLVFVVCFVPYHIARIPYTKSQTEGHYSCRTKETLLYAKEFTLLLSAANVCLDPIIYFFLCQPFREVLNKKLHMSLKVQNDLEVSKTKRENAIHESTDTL

A further test deals with 5HT1D (Homo sapiens, UniProt P28221). Nature of the test: PDSP off-target binding. Particulars: ± SEM.
Sequence of 5HT1D (P28221 whole entry, species assumed): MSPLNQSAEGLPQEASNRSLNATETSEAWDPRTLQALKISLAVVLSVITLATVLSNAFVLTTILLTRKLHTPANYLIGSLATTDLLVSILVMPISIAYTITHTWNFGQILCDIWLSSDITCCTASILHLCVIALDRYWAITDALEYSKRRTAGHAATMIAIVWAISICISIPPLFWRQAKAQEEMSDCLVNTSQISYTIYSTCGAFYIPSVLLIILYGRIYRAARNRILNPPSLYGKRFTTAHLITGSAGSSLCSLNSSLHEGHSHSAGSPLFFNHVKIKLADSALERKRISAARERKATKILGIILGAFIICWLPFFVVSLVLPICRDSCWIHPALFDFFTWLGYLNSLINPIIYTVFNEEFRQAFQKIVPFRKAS
The target of a further test is 5HT1E (Homo sapiens, UniProt P28566). Kind of test: PDSP off-target binding. The following applies: ± SEM.
Sequence of 5HT1E (P28566 whole entry, species assumed): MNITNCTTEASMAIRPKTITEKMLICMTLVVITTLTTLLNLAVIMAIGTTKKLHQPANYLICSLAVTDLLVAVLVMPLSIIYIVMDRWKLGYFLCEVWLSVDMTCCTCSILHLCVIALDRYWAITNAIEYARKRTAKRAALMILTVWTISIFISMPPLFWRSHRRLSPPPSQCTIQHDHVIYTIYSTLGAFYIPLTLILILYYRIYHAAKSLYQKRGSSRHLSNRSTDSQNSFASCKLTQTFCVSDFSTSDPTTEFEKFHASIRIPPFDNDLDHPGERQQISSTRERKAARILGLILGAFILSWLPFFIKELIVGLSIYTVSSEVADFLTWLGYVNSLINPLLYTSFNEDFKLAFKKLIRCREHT
In a further test the target is β3 (Homo sapiens, UniProt P13945). Kind of test: PDSP off-target binding. The following applies: ± SEM.
Sequence of β3 (P13945 whole entry): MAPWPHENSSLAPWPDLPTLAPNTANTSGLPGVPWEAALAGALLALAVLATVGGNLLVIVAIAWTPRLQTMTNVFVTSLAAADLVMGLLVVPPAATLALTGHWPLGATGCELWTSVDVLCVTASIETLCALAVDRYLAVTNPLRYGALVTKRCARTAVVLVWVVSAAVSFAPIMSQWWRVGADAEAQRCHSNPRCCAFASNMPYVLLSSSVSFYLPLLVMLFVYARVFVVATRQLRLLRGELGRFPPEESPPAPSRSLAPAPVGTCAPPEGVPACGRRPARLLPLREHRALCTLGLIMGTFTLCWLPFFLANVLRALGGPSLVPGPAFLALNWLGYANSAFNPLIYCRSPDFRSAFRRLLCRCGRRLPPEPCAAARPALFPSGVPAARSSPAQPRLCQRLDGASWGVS
The target in another test is TSPO (Rattus norvegicus, UniProt P16257). Nature of the test: PDSP off-target binding. The following applies: ± SEM.
Sequence of TSPO (P16257 whole entry): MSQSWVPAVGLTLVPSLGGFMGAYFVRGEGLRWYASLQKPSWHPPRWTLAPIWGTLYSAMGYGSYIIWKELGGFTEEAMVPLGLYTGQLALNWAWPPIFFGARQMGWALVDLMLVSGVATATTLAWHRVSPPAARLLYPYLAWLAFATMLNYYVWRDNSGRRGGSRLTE
[2] abbreviates: 10 μmol/kg, i.p., day 7 post-CCI, n = 3.

Broadly, the IC50 is the concentration that inhibits the measured activity by half. Usually Ki stands for a measure of affinity in units of concentration, obtained from inhibition or displacement.

Consider `O=C(O)c1cc(-c2ccc(C3CCNCC3)cc2)cc(-c2cn(-c3ccc(C(F)(F)F)cc3)nn2)c1` [Compound 7, 4′-(Piperidin-4-yl)-5-(1-(4-(trifluormethyl)phenyl)-1H-1,2,3-triazol-4-yl)-[1,1′-biphenyl]-3-carboxylic acid], for which the concentration for half-maximal inhibition (IC50) at hP2Y14R stood at 664 ± 175 nM. The inhibition constant (Ki) on DOR was 3790 nM. Besides, affinity on α2C was put at a Ki of 2710 nM. This molecule showed a Ki on α2A of 959 nM. Moreover, the affinity on α2B, expressed as Ki, was 5330 nM. Further, in [1] (10 μmol/kg i.p., 6 vs 7, 4 vs 1), the “In vivo efficacy compared with a comparator compound” value was “no statistical difference; also recorded: similar”. In test [1] (setting [2]), the “Effect at 0.5 h (% ± SD), percent inhibition of mechano-allodynia” value is recorded as 70.7 ± 16.5%; the “Effect at 1 h (% + SD), percent inhibition of mechano-allodynia” value turned out to be 86.8 ± 2.4%; the “Effect at 2 h (% ± SD), percent inhibition of mechano-allodynia” value is given as 71.4 ± 10.2%; the “Effect at 3 h (% ± SD), percent inhibition of mechano-allodynia” value was 55.1 ± 18.6%. For the same molecule, the “Effect at 5 h (% ± SD), percent inhibition of mechano-allodynia” value in test [1] (setting [2]) turned out to be 6.7 ± 5.9%. The “Reversal of CCI-induced mechano-allodynia” value in [1] (10 μmol/kg, i.p., ipsilateral hind paw, day 7 post-CCI) is “reversed the allodynia”. Moreover, on mP2Y14R (7 vs 6), the “mP2Y14R affinity compared to isomer 6” value was “nearly equipotent”. For the same molecule, the half-maximal inhibitory concentration (IC50) on mP2Y14R (read-out: Mouse P2Y14R binding affinity (IC50), mP2Y14R in HEK293 cells, tracer 20) is 246 ± 63 nM.

As for `CC(=O)N1CCC(c2ccc(-c3cc(C(=O)O)cc4cc(-c5ccc(C(F)(F)F)cc5)ccc34)cc2)CC1` [Compound 4, 4-(4-(1-(Acetyl)piperidin-4-yl)phenyl)-7-(4-(trifluoromethyl)phenyl)-2-naphthoic acid], the Ki came out at 1750 nM on 5HT1D, 3910 nM on 5HT1E, 860 nM at β3 and 508 nM at TSPO.
